26 compounds from patent publication US9284317B2, “Substituted imidazo[1,2-a]pyrazines as MPS-1 inhibitors” (Bayer Intellectual Property GmbH, priority 2010, dated 2016) can be followed below.

What is called IC50 is the point on the concentration scale where inhibition reaches its midpoint.

The structures appear in SMILES notation.

For the experiment, the target named is human kinase Mps-1 (N-terminally GST-tagged human full length recombinant Mps-1 kinase) (Homo sapiens (Human), UniProt P33981). Nature of the experiment: Mps-1 Kinase Assay (TR-FRET). It is filed as biochemical. To be noted: 10 μM ATP, 1 μM biotinylated peptide substrate, 60 min at 22° C., read-out: Mps1 IC50. The protocol:
The human kinase Mps-1 phosphorylates a biotinylated substrate peptide. Detection of the phosphorylated product is achieved by time-resolved fluorescence resonance energy transfer (TR-FRET) from Europium-labelled anti-phospho-Serine/Threonine antibody as donor to streptavidin labelled with cross-linked allophycocyanin (SA-XLent) as acceptor. Compounds are tested for their inhibition of the kinase activity.
N-terminally GST-tagged human full length recombinant Mps-1 kinase (purchased from Invitrogen, Karslruhe, Germany, cat. no PV4071) was used. As substrate for the kinase reaction a biotinylated peptide of the amino-acid sequence […] (C-terminus in amide form, purchased from Biosynthan GmbH, Berlin) was used.
The concentration of Mps-1 in the assay was adjusted to the activity of the enzyme lot and was chosen appropriate to have the assay in the linear range, typical enzyme concentrations were in the range of about 1 nM (final conc. in the 5 μl assay volume).
The resulting mixture was incubated 1 h at 22° C. to allow the binding of the phosphorylated peptide to the anti-phospho(Ser/Thr)-Europium-antibody. Subsequently the amount of phosphorylated substrate was evaluated by measurement of the resonance energy transfer from the Europium-labelled anti-phospho(Ser/Thr) antibody to the Streptavidin-XLent.
A general note: TR-FRET usually uses a lanthanide donor and a delayed reading to cut background.

Chain of human kinase Mps-1 (N-terminally GST-tagged human full length recombinant Mps-1 kinase) (P33981 whole entry): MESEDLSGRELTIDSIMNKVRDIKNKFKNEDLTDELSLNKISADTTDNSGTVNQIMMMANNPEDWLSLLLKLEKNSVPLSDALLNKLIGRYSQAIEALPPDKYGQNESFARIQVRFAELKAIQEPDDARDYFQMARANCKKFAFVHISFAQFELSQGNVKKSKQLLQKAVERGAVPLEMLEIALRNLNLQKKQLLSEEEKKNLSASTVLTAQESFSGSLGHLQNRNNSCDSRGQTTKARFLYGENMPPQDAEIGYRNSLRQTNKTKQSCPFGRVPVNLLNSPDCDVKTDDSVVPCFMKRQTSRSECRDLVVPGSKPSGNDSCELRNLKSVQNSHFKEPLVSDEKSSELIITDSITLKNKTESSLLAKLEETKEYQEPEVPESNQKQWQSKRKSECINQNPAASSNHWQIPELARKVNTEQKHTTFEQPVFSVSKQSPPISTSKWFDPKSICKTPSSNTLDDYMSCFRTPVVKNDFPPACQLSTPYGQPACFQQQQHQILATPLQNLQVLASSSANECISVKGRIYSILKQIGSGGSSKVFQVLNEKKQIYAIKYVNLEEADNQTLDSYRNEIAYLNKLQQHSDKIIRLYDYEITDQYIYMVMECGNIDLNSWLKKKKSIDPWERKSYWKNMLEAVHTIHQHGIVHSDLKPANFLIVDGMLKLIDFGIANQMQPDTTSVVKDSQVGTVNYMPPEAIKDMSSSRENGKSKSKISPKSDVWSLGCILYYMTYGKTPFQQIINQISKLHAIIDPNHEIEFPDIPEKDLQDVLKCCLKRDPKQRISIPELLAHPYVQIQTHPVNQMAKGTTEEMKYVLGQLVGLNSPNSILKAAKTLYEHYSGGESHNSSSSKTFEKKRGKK

Take `C/C=C/c1cn2c(-c3ccc(C(=O)NC4CC4)c(Cl)c3)cnc2c(NCC(C)(C)O)n1` [Example 1-12, 2-chloro-N-cyclopropyl-4-{8-[(2-hydroxy-2-methylpropyl)amino]-6-[(1E)-prop-1-en-1-yl]imidazo[1,2-a]pyrazin-3-yl}benzamide]: the half-maximal inhibitory concentration (IC50) came to 132 nM.
For `CC(C)(C)OC(=O)NCCCNc1nc(-c2ccncc2)cn2c(-c3ccc(C(=O)NC4CC4)cc3)cnc12` [Example 2-1, tert-butyl [3-({3-[4-(cyclopropylcarbamoyl)phenyl]-6-(pyridin-4-yl)imidazo[1,2-a]pyrazin-8-yl}amino)propyl]carbamate], the concentration for half-maximal inhibition (IC50) worked out at 8.3 nM.
The same measure for `C/C=C/c1cn2c(-c3ccc(C(=O)NC4CC4)c(F)c3)cnc2c(NCC(C)(C)O)n1` [Example 1-16, N-cyclopropyl-2-fluoro-4-{8-[(2-hydroxy-2-methylpropyl)amino]-6-[(1E)-prop-1-en-1-yl]imidazo[1,2-a]pyrazin-3-yl}benzamide]: 46.5 nM.
The same measure for `CC(C)CNc1nc(C2CCCCC2)cn2c(-c3ccc(C(=O)NC4CC4)cc3)cnc12` [Example 4-1, 4-{6-cyclohexyl-8-[(2-methylpropyl)amino]imidazo[1,2-a]pyrazin-3-yl}-N-cyclopropylbenzamide]: 12.6 nM; for `C/C=C(/C)c1cn2c(-c3ccc(C(=O)NC4CC4)cc3)cnc2c(NCC(C)C)n1` [Example 1-4, 4-{6-[(2Z)-but-2-en-2-yl]-8-[(2-methylpropyl)amino]imidazo[1,2-a]pyrazin-3-yl}-N-cyclopropylbenzamide]: 1.9 nM.
In the case of `COCc1cccc(-c2cn3c(-c4ccc(C(=O)NC5CC5)cc4)cnc3c(NCC(C)C)n2)c1` [Example 1-2, N-cyclopropyl-4-{6-[3-(methoxymethyl)phenyl]-8-[(2-methylpropyl)amino]imidazo[1,2-a]pyrazin-3-yl}benzamide], the half-maximal inhibitory concentration (IC50) stood at 7.1 nM.
As for `C/C=C/c1cn2c(-c3ccc(C(=O)NC4CC4)c(Cl)c3)cnc2c(NCCC(F)(F)F)n1` [Example 1-11, 2-chloro-N-cyclopropyl-4-{6-[(1E)-prop-1-en-1-yl]-8-[(3,3,3-trifluoropropyl)amino]imidazo[1,2-a]pyrazin-3-yl}benzamide], the concentration for half-maximal inhibition (IC50) worked out at 34.3 nM.
As to `C/C=C/c1cn2c(-c3ccc(C(=O)NC4CC4)c(Cl)c3)cnc2c(NCC(C)C)n1` [Example 1-10, 2-chloro-N-cyclopropyl-4-{8-[(2-methylpropyl)amino]-6-[(1E)-prop-1-en-1-yl]imidazo[1,2-a]pyrazin-3-yl}benzamide], the concentration for half-maximal inhibition (IC50) is 72.3 nM.
The same measure for `C/C=C/c1cn2c(-c3ccc(C(=O)NC4CC4)cc3)cnc2c(NCC(C)C)n1` [Example 1-1, N-cyclopropyl-4-{8-[(2-methylpropyl)amino]-6-[(1E)-prop-1-en-1-yl]imidazo[1,2-a]pyrazin-3-yl}benzamide]: 6.2 nM; for `CC(C)CNc1nc(C2=CCCCC2)cn2c(-c3ccc(C(=O)NC4CC4)cc3)cnc12` [Example 1-3, 4-{6-(cyclohex-1-en-1-yl)-8-[(2-methylpropyl)amino]imidazo[1,2-a]pyrazin-3-yl}-N-cyclopropylbenzamide]: 4.2 nM.
The figure for `CC(C)CNc1nc(C2CC2)cn2c(-c3ccc(C(=O)NC4CC4)cc3)cnc12` [Example 1-5, N-cyclopropyl-4-{6-cyclopropyl-8-[(2-methylpropyl)amino]imidazo[1,2-a]pyrazin-3-yl}benzamide] is 6.2 nM; for `CC(C)CNc1nc(C2CC=CCC2)cn2c(-c3ccc(C(=O)NC4CC4)cc3)cnc12` (centres unmarked) [Example 1-6, 4-{6-(cyclohex-3-en-1-yl)-8-[(2-methylpropyl)amino]imidazo[1,2-a]pyrazin-3-yl}-N-cyclopropylbenzamide] it is 2.8 nM.
The same measure for `CC(C)CNc1nc(/C=C2\CCC(=O)N2C)cn2c(-c3ccc(C(=O)NC4CC4)cc3)cnc12` [Example 5-1, N-cyclopropyl-4-{6-[(E)-(1-methyl-5-oxopyrrolidin-2-ylidene)methyl]-8-[(2-methylpropyl)amino]imidazo[1,2-a]pyrazin-3-yl}benzamide]: 1.9 nM.
For `CC(C)CNc1nc(NC(=O)c2ccccn2)cn2c(-c3ccc(C(=O)NC4CC4)cc3)cnc12` [Example 6-1, N-{3-[4-(cyclopropylcarbamoyl)phenyl]-8-[(2-methylpropyl)amino]imidazo[1,2-a]pyrazin-6-yl}pyridine-2-carboxamide], the IC50 turned out to be 10.4 nM.
The figure for `C/C=C/c1cn2c(-c3ccc(C(=O)NC4CC4)c(F)c3)cnc2c(NCCC(F)(F)F)n1` [Example 1-15, N-cyclopropyl-2-fluoro-4-{6-[(1E)-prop-1-en-1-yl]-8-[(3,3,3-trifluoropropyl)amino]imidazo[1,2-a]pyrazin-3-yl}benzamide] is 15.4 nM.
As for `C=C(C)c1cn2c(-c3ccc(C(=O)NC4CC4)cc3)cnc2c(NCC(C)C)n1` [Example 1-9, N-cyclopropyl-4-{8-[(2-methylpropyl)amino]-6-(prop-1-en-2-yl)imidazo[1,2-a]pyrazin-3-yl}benzamide], the concentration for half-maximal inhibition (IC50) worked out at 5.8 nM.
As to `C/C=C/c1cn2c(-c3ccc(C(=O)NC4CC4)c(F)c3)cnc2c(NCC2CCCO2)n1` (centres unmarked) [Example 1-17, N-cyclopropyl-2-fluoro-4-{6-[(1E)-prop-1-en-1-yl]-8-[(tetrahydrofuran-2-ylmethyl)amino]imidazo[1,2-a]pyrazin-3-yl}benzamide], the IC50 stood at 99.2 nM.
The same measure for `CC(C)(C)OC(=O)NCC#CCCNc1nc(-c2ccccc2)cn2c(-c3ccc(C(=O)NC4CC4)cc3)cnc12` [Example 2-2, tert-Butyl [5-({3-[4-(cyclopropylcarbamoyl)phenyl]-6-phenylimidazo[1,2-a]pyrazin-8-yl}amino)pent-2-yn-1-yl]carbamate]: 94.6 nM; for `C/C=C(\C)c1cn2c(-c3ccc(C(=O)NC4CC4)cc3)cnc2c(NCC(C)C)n1` [Example 1-7, 4-{6-[(2E)-but-2-en-2-yl]-8-[(2-methylpropyl)amino]imidazo[1,2-a]pyrazin-3-yl}-N-cyclopropylbenzamide]: 4.1 nM.
In the case of `CC(C)(C)OC(=O)NC/C=C\CCNc1nc(-c2ccccc2)cn2c(-c3ccc(C(=O)NC4CC4)cc3)cnc12` [Example 2-4, tert-Butyl [(2Z)-5-({3-[4-(cyclopropylcarbamoyl)phenyl]-6-phenylimidazo[1,2-a]pyrazin-8-yl}amino)pent-2-en-1-yl]carbamate], the IC50 was found to be 12.3 nM.
In the case of `C/C=C/c1cn2c(-c3ccc(C(=O)NC4CC4)c(F)c3)cnc2c(NCc2ccnn2C)n1` [Example 1-18, N-cyclopropyl-2-fluoro-4-(8-{[(1-methyl-1H-pyrazol-5-yl)methyl]amino}-6-[(1E)-prop-1-en-1-yl]imidazo[1,2-a]pyrazin-3-yl)benzamide], the IC50 came out at 31.9 nM.
On to `CC(C)(C)OC(=O)NC/C=C/CCNc1nc(-c2ccccc2)cn2c(-c3ccc(C(=O)NC4CC4)cc3)cnc12` [Example 2-3, tert-Butyl [(2E)-5-({3-[4-(cyclopropylcarbamoyl)phenyl]-6-phenylimidazo[1,2-a]pyrazin-8-yl}amino)pent-2-en-1-yl]carbamate], for which the concentration for half-maximal inhibition (IC50) was determined as 64 nM.
The same measure for `CC(C)CNc1nc(C2CCCC2)cn2c(-c3ccc(C(=O)NC4CC4)cc3)cnc12` [Example 4-2, 4-{6-cyclopentyl-8-[(2-methylpropyl)amino]imidazo[1,2-a]pyrazin-3-yl}-N-cyclopropylbenzamide]: 6.1 nM.
The figure for `C/C=C/c1cn2c(-c3ccc(C(=O)NC4CC4)c(Cl)c3)cnc2c(NCc2ccnn2C)n1` [Example 1-13, 2-chloro-N-cyclopropyl-4-(8-{[(1-methyl-1H-pyrazol-5-yl)methyl]amino}-6-[(1E)-prop-1-en-1-yl]imidazo[1,2-a]pyrazin-3-yl)benzamide] is 70.6 nM.
On to `C/C=C/c1cn2c(-c3ccc(C(=O)NC4CC4)c(F)c3)cnc2c(NCC(C)C)n1` [Example 1-14, N-cyclopropyl-2-fluoro-4-{8-[(2-methylpropyl)amino]-6-[(1E)-prop-1-en-1-yl]imidazo[1,2-a]pyrazin-3-yl}benzamide], for which the IC50 is 38.7 nM.
The figure for `C=Cc1ccc(-c2cn3c(-c4ccc(C(=O)NC5CC5)cc4)cnc3c(NCC(C)C)n2)cc1` [Example 1-20, N-cyclopropyl-4-{6-(4-ethenylphenyl)-8-[(2-methylpropyl)amino]imidazo[1,2-a]pyrazin-3-yl}benzamide] is 21.4 nM.
